Among the data in PubChem BioAssay AID1053167 (Broad Institute, 2014) are activity change, negative = inhibition and AC50 values, retold here.

The structures appear in SMILES notation. Several values for one entry are separate records, joined by “and”; a condition that tells them apart may be missing. Equal values may be shown once. Activity calls are given as the source filed them. How the calls were made is not given here.

Tested on in one experiment: not listed separately
The experiment in a line: Vaccinia orthopox stage specific inhibitors, infected cell plate reader assay, dose response confirmation (AID 1053167). The conditions noted are these: Vaccinia virus infected cells, plate reader read-out; at 1 µM (top of the series).
As to `C[C@H](O)C#Cc1ccc2c(c1)O[C@@H](CN(C)Cc1ccc(-c3ccccc3)cc1)[C@H](C)CN([C@@H](C)CO)S2(=O)=O`, the activity change, negative = inhibition is 6% (inactive).
For `CO[C@H]1CN(C)C(=O)c2ccc(NC(=O)c3ccc(F)cc3)cc2OC[C@H](C)N(C(=O)c2ccc(F)cc2)C[C@@H]1C`, the activity change, negative = inhibition is 0% (inactive).

Still in this experiment, the particulars now being: Vaccinia virus infected cells, plate reader read-out; at 10 µM (top of the series).
In the case of `C[C@H](O)C#Cc1ccc2c(c1)O[C@@H](CN(C)Cc1ccc(-c3ccccc3)cc1)[C@@H](C)CN([C@@H](C)CO)S2(=O)=O`, the activity change, negative = inhibition is -4% (inactive).
For the molecule `C[C@@H](O)C#Cc1ccc2c(c1)O[C@@H](CN(C)C(=O)c1ccc(-c3ccccc3)cc1)[C@@H](C)CN([C@@H](C)CO)S2(=O)=O`, the activity change, negative = inhibition was -22% (inactive).
For `C[C@@H](O)C#Cc1ccc2c(c1)O[C@@H](CN(C)S(=O)(=O)c1ccc(-c3ccccc3)cc1)[C@@H](C)CN([C@@H](C)CO)S2(=O)=O`, the activity change, negative = inhibition was -14% (inactive).
Regarding `CNC[C@@H]1Oc2cc(Br)ccc2S(=O)(=O)N([C@@H](C)CO)C[C@@H]1C`, the activity change, negative = inhibition is -1% (inactive).
For the molecule `C[C@H](O)C#Cc1ccc2c(c1)O[C@@H](CN(C)Cc1ccc(-c3ccccc3)cc1)[C@@H](C)CN([C@H](C)CO)S2(=O)=O`, the activity change, negative = inhibition is 1% (inactive).
Turning to `C[C@H]1CN([C@@H](C)CO)S(=O)(=O)c2ccc(Br)cc2O[C@H]1CN(C)Cc1ccc(-c2ccccc2)cc1`, the activity change, negative = inhibition was -19% (inactive).

Another experiment relates to Vaccinia virus infected cells, plate reader read-out. Described as above.
Conditions: not given
For orientation: AC50 means the concentration giving half of the maximal activity seen. `C[C@@H](O)C#Cc1ccc2c(c1)O[C@@H](CN(C)Cc1ccc(-c3cccc(Cl)c3)cc1)[C@@H](C)CN([C@@H](C)CO)S2(=O)=O`: the AC50 was 2560 nM.
Take `Cc1cccc(-c2ccc(CN(C)C[C@@H]3Oc4cc(C#C[C@@H](C)O)ccc4S(=O)(=O)N([C@@H](C)CO)C[C@@H]3C)cc2)c1`: the AC50 is 1740 nM.
For `C[C@H](O)C#Cc1ccc2c(c1)O[C@H](CN(C)Cc1ccc(-c3ccccc3)cc1)[C@@H](C)CN([C@H](C)CO)S2(=O)=O`, the AC50 was > 20000 nM (inactive).
`COc1ccccc1-c1ccc(CN(C)C[C@@H]2Oc3cc(C#C[C@@H](C)O)ccc3S(=O)(=O)N([C@@H](C)CO)C[C@@H]2C)cc1`: the AC50 was 2140 nM.
In the case of `C[C@@H]1CN([C@@H](C)CO)S(=O)(=O)c2ccc(C#C[C@@H](C)O)cc2O[C@@H]1CN(C)Cc1ccc(-c2ccccc2)cc1`, the AC50 is > 20000 nM (inactive).
Regarding `C[C@H](O)C#Cc1ccc2c(c1)O[C@@H](CN(C)Cc1ccc(-c3ccccc3)cc1)[C@H](C)CN([C@H](C)CO)S2(=O)=O`, the AC50 is > 20000 nM (inactive).
As to `C[C@@H](O)C#Cc1ccc2c(c1)O[C@@H](CN(C)Cc1ccc(-c3ccccc3)cc1)[C@@H](C)CN([C@@H](C)CO)S2(=O)=O`, the AC50 was 2940 nM and 3900 nM.
On the same count and under the same terms, to `C[C@H]1CN([C@@H](C)CO)S(=O)(=O)c2ccc(C#CC(C)(C)O)cc2O[C@H]1CN(C)Cc1ccc(-c2ccccc2)cc1` belongs > 20000 nM (inactive); to `Cc1ccc(-c2ccc(CN(C)C[C@@H]3Oc4cc(C#C[C@@H](C)O)ccc4S(=O)(=O)N([C@@H](C)CO)C[C@@H]3C)cc2)cc1`, 1480 nM; to `C[C@@H](O)C#Cc1ccc2c(c1)O[C@@H](CN(C)Cc1ccccc1)[C@@H](C)CN([C@@H](C)CO)S2(=O)=O`, 8730 nM.
Consider `C[C@@H]1CN([C@H](C)CO)S(=O)(=O)c2ccc(C#C[C@@H](C)O)cc2O[C@H]1CN(C)Cc1ccc(-c2ccccc2)cc1`, for which the AC50 was 7160 nM.
With `COc1cccc(-c2ccc(CN(C)C[C@@H]3Oc4cc(C#C[C@@H](C)O)ccc4S(=O)(=O)N([C@@H](C)CO)C[C@@H]3C)cc2)c1`, the AC50 was 2770 nM.
`C[C@@H](O)C#Cc1ccc2c(c1)O[C@@H](CN(C)Cc1ccc(-c3ccccc3Cl)cc1)[C@@H](C)CN([C@@H](C)CO)S2(=O)=O`: the AC50 is 1340 nM.
With `C[C@H](O)C#Cc1ccc2c(c1)O[C@H](CN(C)Cc1ccc(-c3ccccc3)cc1)[C@H](C)CN([C@H](C)CO)S2(=O)=O`, the AC50 was > 20000 nM (inactive).
The same measure, in the same setting: the figure for `C[C@H](O)C#Cc1ccc2c(c1)O[C@H](CN(C)Cc1ccc(-c3ccccc3)cc1)[C@@H](C)CN([C@@H](C)CO)S2(=O)=O` is 5700 nM.
As for `COc1ccc(-c2ccc(CN(C)C[C@@H]3Oc4cc(C#C[C@@H](C)O)ccc4S(=O)(=O)N([C@@H](C)CO)C[C@@H]3C)cc2)cc1`, the AC50 was 2200 nM.
Still for that read-out and setting: to `C[C@H]1CN([C@@H](C)CO)S(=O)(=O)c2ccc(-c3ccc(O)cc3)cc2O[C@H]1CN(C)Cc1ccc(-c2ccccc2)cc1` belongs > 20000 nM (inactive); to `COc1ccc(-c2ccc3c(c2)O[C@@H](CN(C)Cc2ccc(-c4ccccc4)cc2)[C@@H](C)CN([C@@H](C)CO)S3(=O)=O)cc1`, > 20000 nM (inactive).
For `C[C@@H](O)C#Cc1ccc2c(c1)O[C@@H](CN(C)Cc1ccc(-c3ccc(Cl)cc3)cc1)[C@@H](C)CN([C@@H](C)CO)S2(=O)=O`, the AC50 is 1210 nM.
For `Cc1ccccc1-c1ccc(CN(C)C[C@@H]2Oc3cc(C#C[C@@H](C)O)ccc3S(=O)(=O)N([C@@H](C)CO)C[C@@H]2C)cc1`, the AC50 is 1160 nM.
